According to US20210163896A1, “METHOD FOR PRODUCING ANIMAL CELL CONTAINING DNA OF INTEREST USING MICRONUCLEATE CELL FUSION METHOD” (NATIONAL UNIVERSITY CORPORATION TOTTORI UNIVERSITY, priority 2018, published 2021):

Tests used:
[1] = system: Human iPS cells; assay: Micronucleation induction in human iPS cells, microscopic observation; type: cell-based; conditions: 48 hours, MAS 0.2 μg/mL compared to colcemid 0.25 μg/mL, paclitaxel 20-400 nM, reversine 0-1500 nM added
Description: Human iPS cells were seeded to a 6-well plate previously coated with 0.5 μg/cm^2 Laminin™-511 (Nippi. Inc.) at a density of 5×10^5 cells per well, and 10 μM Y-27632 was added. The human iPS cells were incubated at 37° C. in the condition of 5% CO2 for 24 hours. For a micronucleation induction experiment, 22 conditions in total were designed based on treatments with colcemid 0.25 μg/mL, MAS 0.2 μg/mL or paclitaxel (20 nM, 40 nM, 60 nM, 100 nM, 400 nM) with the addition of reversine (no addition, 500 nM, 1000 nM, 1500 nM) during the treatments, and the cells were cultured at 37° C. in the condition of 5% CO2 for 48 hours.
After micronucleation induction, the micronucleation induction rates were compared based on microscopic observation.

[2] = system: CHO MHG#4a cells; assay: Micronucleation induction in CHO cells, fluorescence-microscopic observation; type: cell-based, Chinese hamster; conditions: 72 hours, paclitaxel 0-1920 nM, reversine 0-12288 nM
Description: Ninety six conditions, which were designed by combinations of paclitaxel (0 nM, 96 nM, 192 nM, 384 nM, 768 nM, 1152 nM, 1536 nM, 1920 nM) and reversine (0 nM, 192 nM, 384 nM, 768 nM, 1536 nM, 3072 nM, 4608 nM, 6144 nM, 7680 nM, 9216 nM, 10752 nM, 12288 nM), were assigned to the wells. Culture was carried out at 37° C. in the condition of 5% CO2 for 72 hours.
After micronucleation induction, the micronucleation induction rates were compared based on observation by fluorescence microscopy.

[3] = system: Human immortalized mesenchymal stem cells (hiMSC); assay: Micronucleation induction in human immortalized mesenchymal stem cells, DAPI staining; type: cell-based; conditions: 48 hours
Description: Human immortalized mesenchymal stem cells (hiMSC: provided by Dr. Toguchida, Kyoto University) were seeded in individual wells of a 6-well plate at a density of 5×10^5 cells per well and cultured at 37° C. in the condition of 5% CO2 for 24 hours. For the micro nucleation induction experiment, 26 conditions in total were designed based on treatments with colcemid (0.05 μg/mL, 0.1 μg/mL, 0.2 μg/mL), MAS (0.1 μg/mL, 0.2 μg/mL, 0.4 μg/mL) and paclitaxel (0.8 nM, 4 nM, 20 nM, 100 nM, 400 nM), with the addition of reversine (no addition, 500 nM, 1000 nM, 1500 nM) during the treatments, and the cells were cultured at 37° C. in the condition of 5% CO2 for 48 hours.
In order to observe living cells after micronucleation induction, the cells were fixed with 4% paraformaldehyde and stained with DAPI (concentration: 1 μg/mL) for 15 minutes. The fixed cells were observed by fluorescence microscopy and the micronuclear formation induction rates were compared. Whether or not micronuclei were formed in individual cells was observed and the results are shown in a figure (FIG. 2).

| Compound | micronucleation induction rate [1] | micronucleation rate [2] | micronucleation induction, usefulness of agent [3] |
| --- | --- | --- | --- |
| CC(=O)O[C@H]1C(=O)[C@@]2(C)[C@H]([C@H](OC(=O)c3ccccc3)[C@]3(O)C[C@H](OC(=O)[C@H](O)[C@@H](NC(=O)c4ccccc4)c4ccccc4)C(C)=C1C3(C)C)[C@]1(OC(C)=O)CO[C@@H]1C[C@@H]2O [paclitaxel] | micronucleation rate increases in a concentration dependent manner | micronucleation rate increases in a concentration dependent manner | effective |
| c1nc2nc(Nc3ccc(N4CCOCC4)cc3)nc(NC3CCCCC3)c2[nH]1 [reversine] | useful | micronucleation rate increases in a concentration dependent manner | useful |
